Reference: ChEMBL document CHEMBL1147711, “Tetrazole thioacetanilides: potent non-nucleoside inhibitors of WT HIV reverse transcriptase and its K103N mutant” (Bioorg Med Chem Lett, 2006)

Test system: Human immunodeficiency virus 1
Assay: Antiviral activity against HIV1 in presence of 10% FBS
Format: functional
Conditions: read-out: CIC95

| Structure (SMILES) | IC95 |
| --- | --- |
| Cc1cc(C)c(-n2nnnc2SCC(=O)Nc2ccccc2I)c(C)c1 | 312 nM |
| Cc1cc(C)c(-n2nnnc2SCC(=O)Nc2ccccc2Br)c(C)c1 | 100 nM |
| Cc1cc(C)c(-n2nnnc2SCC(=O)Nc2c(Cl)cccc2Cl)c(C)c1 | > 5000 nM |
| Cc1cc(C)c(-n2nnnc2SCC(=O)Nc2ccc(S(N)(=O)=O)cc2Cl)c(C)c1 | 16 nM |
| Cc1cc(C)c(-n2nnnc2SCC(=O)Nc2ccc(S(N)(=O)=O)cc2C)c(C)c1 | 50 nM |
| Cc1cc(C)c(-n2nnnc2SCC(=O)Nc2ccccc2[N+](=O)[O-])c(C)c1 | 11 nM |
| Cc1ccc(-n2nnnc2SCC(=O)Nc2ccccc2[N+](=O)[O-])c(Br)c1 | 8 nM |
| O=C(CSc1nnnn1-c1cc(Cl)ccc1Cl)Nc1ccccc1[N+](=O)[O-] | 31 nM |
| Cc1cc(C)c(-n2nnnc2SCC(=O)Nc2ccc(C(N)=O)cc2C)c(C)c1 | 31 nM |
| Cc1cccc(-n2nnnc2SCC(=O)Nc2ccccc2[N+](=O)[O-])c1C | 63 nM |
| O=C(CSc1nnnn1-c1cccc(Cl)c1Cl)Nc1ccccc1[N+](=O)[O-] | 78 nM |
| O=C(CSc1nnnn1-c1cc(F)ccc1Cl)Nc1ccccc1[N+](=O)[O-] | 63 nM |
| Cc1cc(C)c(-n2nnnc2SCC(=O)Nc2ccc([N+](=O)[O-])cc2C)c(C)c1 | 1250 nM |

Test system: Human immunodeficiency virus type 1 reverse transcriptase (Human immunodeficiency virus 1), Q72547 [UNDEFINED MUTATION]
Assay: Ratio of K103N mutant IC50 to wild type Reverse Transcriptase IC50
Conditions: not given

| Structure (SMILES) | Ratio |
| --- | --- |
| Cc1cc(C)c(-n2nnnc2SCC(=O)Nc2ccccc2I)c(C)c1 | 3 |
| Cc1cc(C)c(-n2nnnc2SCC(=O)Nc2ccccc2Br)c(C)c1 | 5 |
| Cc1cc(C)c(-n2nnnc2SCC(=O)Nc2ccc(S(N)(=O)=O)cc2Cl)c(C)c1 | 3 |
| Cc1cc(C)c(-n2nnnc2SCC(=O)Nc2ccc(S(N)(=O)=O)cc2C)c(C)c1 | 1 |
| Cc1cc(C)c(-n2nnnc2SCC(=O)Nc2ccccc2[N+](=O)[O-])c(C)c1 | 3 |
| Cc1ccc(-n2nnnc2SCC(=O)Nc2ccccc2[N+](=O)[O-])c(Br)c1 | 3 |
| O=C(CSc1nnnn1-c1cc(Cl)ccc1Cl)Nc1ccccc1[N+](=O)[O-] | 1 |
| Cc1cc(C)c(-n2nnnc2SCC(=O)Nc2ccc(C(N)=O)cc2C)c(C)c1 | 1 |
| Cc1cccc(-n2nnnc2SCC(=O)Nc2ccccc2[N+](=O)[O-])c1C | 1 |
| O=C(CSc1nnnn1-c1cccc(Cl)c1Cl)Nc1ccccc1[N+](=O)[O-] | 1 |
| O=C(CSc1nnnn1-c1cc(F)ccc1Cl)Nc1ccccc1[N+](=O)[O-] | 1 |
| Cc1cc(C)c(-n2nnnc2SCC(=O)Nc2ccccc2Cl)c(C)c1 | 3 |
| Cc1cc(C)c(-n2nnnc2SCC(=O)Nc2ccc([N+](=O)[O-])cc2C)c(C)c1 | 3 |

Target: Human immunodeficiency virus type 1 reverse transcriptase (Human immunodeficiency virus 1, UniProt Q72547)
Assay: Inhibition of HIV1 wild type Reverse Transcriptase
Conditions: not given

| Structure (SMILES) | IC50 |
| --- | --- |
| Cc1cc(C)c(-n2nnnc2SCC(=O)Nc2ccccc2I)c(C)c1 | 31 nM |
| Cc1cc(C)c(-n2nnnc2SCC(=O)Nc2ccccc2Br)c(C)c1 | 7 nM |
| Cc1cc(C)c(-n2nnnc2SCC(=O)Nc2c(Cl)cccc2Cl)c(C)c1 | > 5000 nM |
| Cc1cc(C)c(-n2nnnc2SCC(=O)Nc2ccc(S(N)(=O)=O)cc2Cl)c(C)c1 | 4 nM |
| Cc1cc(C)c(-n2nnnc2SCC(=O)Nc2ccc(S(N)(=O)=O)cc2C)c(C)c1 | 54 nM |
| Cc1cc(C)c(-n2nnnc2SCC(=O)Nc2ccccc2[N+](=O)[O-])c(C)c1 | 3 nM |
| Cc1ccc(-n2nnnc2SCC(=O)Nc2ccccc2[N+](=O)[O-])c(Br)c1 | 3 nM |
| O=C(CSc1nnnn1-c1cc(Cl)ccc1Cl)Nc1ccccc1[N+](=O)[O-] | 4 nM |
| Cc1cc(C)c(-n2nnnc2SCC(=O)Nc2ccc(C(N)=O)cc2C)c(C)c1 | 55 nM |
| Cc1cccc(-n2nnnc2SCC(=O)Nc2ccccc2[N+](=O)[O-])c1C | 18 nM |
| O=C(CSc1nnnn1-c1cccc(Cl)c1Cl)Nc1ccccc1[N+](=O)[O-] | 12 nM |
| O=C(CSc1nnnn1-c1cc(F)ccc1Cl)Nc1ccccc1[N+](=O)[O-] | 10 nM |
| Cc1cc(C)c(-n2nnnc2SCC(=O)Nc2ccccc2Cl)c(C)c1 | 5 nM |
| Cc1cc(C)c(-n2nnnc2SCC(=O)Nc2ccc([N+](=O)[O-])cc2C)c(C)c1 | 165 nM |

Test system: not listed separately
Assay: Oral bioavailability in rat at 3 mg/kg, iv and po
Format: ADME, organism-based
Conditions: in vivo

| Structure (SMILES) | bioavailability |
| --- | --- |
| Cc1cc(C)c(-n2nnnc2SCC(=O)Nc2ccc(S(N)(=O)=O)cc2Cl)c(C)c1 | 33% |
| Cc1cc(C)c(-n2nnnc2SCC(=O)Nc2ccc(S(N)(=O)=O)cc2C)c(C)c1 | 60% |
| Cc1cc(C)c(-n2nnnc2SCC(=O)Nc2ccccc2[N+](=O)[O-])c(C)c1 | 0% |

Test system: Human immunodeficiency virus 1
Assay: Antiviral activity against HIV1 in presence of 50% NHS
Format: functional
Conditions: read-out: CIC95

| Structure (SMILES) | IC95 |
| --- | --- |
| Cc1cc(C)c(-n2nnnc2SCC(=O)Nc2ccccc2I)c(C)c1 | 1250 nM |
| Cc1cc(C)c(-n2nnnc2SCC(=O)Nc2ccccc2Br)c(C)c1 | 810 nM |
| Cc1cc(C)c(-n2nnnc2SCC(=O)Nc2c(Cl)cccc2Cl)c(C)c1 | > 5000 nM |
| Cc1cc(C)c(-n2nnnc2SCC(=O)Nc2ccc(S(N)(=O)=O)cc2Cl)c(C)c1 | 62 nM |
| Cc1cc(C)c(-n2nnnc2SCC(=O)Nc2ccc(S(N)(=O)=O)cc2C)c(C)c1 | 580 nM |
| Cc1cc(C)c(-n2nnnc2SCC(=O)Nc2ccccc2[N+](=O)[O-])c(C)c1 | 90 nM |
| Cc1ccc(-n2nnnc2SCC(=O)Nc2ccccc2[N+](=O)[O-])c(Br)c1 | 62 nM |
| O=C(CSc1nnnn1-c1cc(Cl)ccc1Cl)Nc1ccccc1[N+](=O)[O-] | 200 nM |
| Cc1cc(C)c(-n2nnnc2SCC(=O)Nc2ccc(C(N)=O)cc2C)c(C)c1 | 62 nM |
| Cc1cccc(-n2nnnc2SCC(=O)Nc2ccccc2[N+](=O)[O-])c1C | 250 nM |
| O=C(CSc1nnnn1-c1cccc(Cl)c1Cl)Nc1ccccc1[N+](=O)[O-] | 125 nM |
| O=C(CSc1nnnn1-c1cc(F)ccc1Cl)Nc1ccccc1[N+](=O)[O-] | 250 nM |
| Cc1cc(C)c(-n2nnnc2SCC(=O)Nc2ccc([N+](=O)[O-])cc2C)c(C)c1 | > 5000 nM |
